Patent US8026275B2 (priority 2005, dated 2011)
Read-outs that look alike come from different tables or passages of the source.

Legend:
[1] = Total Antioxidant Status Assay (CalBiochem), inhibition of ABTS oxidation; type: biochemical; settings: read-out: Antioxidant activity (IC50, 50% suppression of ABTS+ absorbance at 600 nm)
Description: The assay used relies on the ability of antioxidants in the sample to inhibit the oxidation of ABTS (2,2'-Azino-di-[3-ethylbenzthiazoline sulphonate]) to ABTS+ by metmyoglobin (a peroxidase). The amount of ABTS+ produced was monitored at 600 nm. Under the reaction conditions used, the antioxidants in the sample suppress the absorbance at 600 nm to a degree which is proportional to their concentration and antioxidant activity.

[2] = test system: rats; experiment: Anesthetic activity in vivo, time to recovery of righting reflex; design: species or system rat; settings: for toxicity compared with 2,6-diisopropyl phenol: equimolar dose; for duration of anesthesia (time to recovery of righting reflex): tail vein injection in DMSO, 28 μmol/kg (5 mg/kg for 2,6-diisopropyl phenol)
Protocol: Drugs solubilized in DMSO were administered to rats by tail vein injection (N=5 rats per group). […] GABAA binding activity in vitro was performed as described in Example 27.

[3] = molecular target: T1, GABAA Cl channel; type: binding, bovine; settings: for Kd: read-out: binding constant (KD), inhibition of TBOB binding to GABAA receptor
T1 construct: other: determined graphically, increasing concentr; other: 10^-4M, bovine hippocampus

[4] = Dose escalation in rats: mortality and anesthetic activity; settings: rat, in vivo
Protocol: (§1) Drugs solubilized in DMSO were administered to rats (5 rats per group). Anesthetic activity in vivo was determined as time to recovery of righting reflex. […] In order to adjust for the differences in molecular weight between the two compounds, umol/kg dose was used.

[5] = test system: rats; experiment: as above; settings: rats; for LD10: in DMSO, calculated from mortality curves
Protocol: as §1

[6] = rat, intravenously via jugular vein cannula, in DMSO, blood
[7] = test system: GABAA alpha-1 site; settings: 10^-4M, bovine hippocampus
[8] = test system: GABAA agonist site; settings: 10^-4M, bovine hippocampus
[9] = in vivo; settings: rat, plasma, intravenous, 5 mg/kg
[10] = test system: GABAA alpha-6 site; settings: 10^-4M, bovine hippocampus
[11] = in vivo; settings: rat
Description: Time plasma concentration curve was processed using a two compartment PK model supported by WinNonlin.

[12] = test system: GABAA Cl channel; type: binding, bovine; settings: read-out: IC50 of binding to GABA Cl channel
[13] = test system: GABAA alpha 2 site; settings: 10^-4M, bovine hippocampus
[14] = dissolved in DMSO
[15] = determined graphically, increasing concentrations
[16] = 5 mg/kg intravenously in DMSO, plasma

CC(C)c1cc(C(=O)c2ccc(F)cc2)cc(C(C)C)c1O [Compound 1, (4-fluorophenyl)-(4-hydroxy-3,5-diisopropylphenyl)methanone]
IC50 [1]: > 1000 µM

CC(C)c1cc(C(=O)c2ccc(C#N)cc2)cc(C(C)C)c1O [Compound 13, (4-cyanophenyl)-(4-hydroxy-3,5-diisopropylphenyl)methanone]
IC50 [1]: > 1000 µM

CC(C)c1cc(C(=O)c2ccc(C(F)(F)F)nc2)cc(C(C)C)c1O [Compound 14, (6-(trifluoromethyl)pyridin-3-yl)-(4-hydroxy-3,5-diisopropylphenyl)methanone]
IC50 [1]: > 1000 µM

CC(C)c1cc(C(=O)c2cccc(C(F)(F)F)c2)cc(C(C)C)c1O [Compound 5, (3-(trifluoromethyl)phenyl)-(4-hydroxy-3,5-diisopropylphenyl)methanone]
IC50 [1]: > 1000 µM

CC(C)c1cc(C(=O)c2ccc(C(F)(F)F)c(F)c2)cc(C(C)C)c1O [Compound 4, (3-fluoro-4-(trifluoromethyl)phenyl)-(4-hydroxy-3,5-diisopropylphenyl)methanone]
IC50 [1]: > 1000 µM

CC(C)c1cc(C(=O)c2ccc(I)cc2)cc(C(C)C)c1O [Compound 11, (4-hydroxy-3,5-diisopropylphenyl)-(4-iodophenyl)methanone]
IC50 [1]: > 1000 µM
toxicity compared with 2,6-diisopropyl phenol [2]: did not have toxicity above that of 2,6-diisopropyl phenol
duration of anesthesia (time to recovery of righting reflex) [2]: 86 min
Kd [3, 15]: 0.36 µM

CC(C)c1cc(C(=O)c2ccc(C(F)(F)F)cc2)cc(C(C)C)c1O [Compound 2]
IC50 [1]: > 1000 µM
LD50 [4]: 62.1 µmol/kg
time asleep at LD10 [5]: 1.73 h
anesthetic activity compared with 2,6-diisopropyl phenol ([5]; dose escalation): better anesthetic activity than 2,6-diisopropyl phenol at all dose levels
LD10 [5]: 29 µmol/kg
toxicity compared with 2,6-diisopropyl phenol [2]: did not have toxicity above that of 2,6-diisopropyl phenol
duration of anesthesia (time to recovery of righting reflex) [2]: 75 to 92 min
AUC [6]: 127000 ng·h/mL
CL [6]: 1.3 mL/min/kg
Cmax [6]: 283000 ng/mL
Vc (volume of the central compartment) [6]: 0.04 L/kg
Vss (volume distribution at steady state) [6]: 5.3 L/kg
Vt (volume of the tissue compartment) [6]: 5.2 L/kg
Kd [3, 15]: 0.42 µM

CC(C)c1cccc(C(C)C)c1O [2,6-diisopropyl phenol]
inhibition of the alpha 1 site [7]: No significant inhibition
inhibition of the agonist site [8]: No significant inhibition
concentration at 20 min [9]: 750 nM
LD50 [4]: 45.3 µmol/kg
time asleep at LD10 [5]: 0.35 h
LD10 [5]: 28 µmol/kg
duration of anesthesia (time to recovery of righting reflex) [2]: 20 min
inhibition of the alpha 6 site [10]: No significant inhibition
AUC [6]: 400 ng·h/mL
CL [6]: 195 mL/min/kg
Cmax [6]: 300 ng/mL
Vc (volume of the central compartment) [6]: 15.0 L/kg
Vt (volume of the tissue compartment) [6]: 58.0 L/kg
V1 [11, 16]: 15 L/kg
V2 [11, 16]: 58 L/kg
AUC ([11]; in vivo, iv, 5 mg/kg): 400 ng·h/mL
Cmax ([11]; in vivo, iv, 5 mg/kg): 300 ng/mL
Vd ([11]; in vivo, iv, 5 mg/kg): 73 L/kg
clearance ([11]; in vivo, iv, 5 mg/kg): 200 mL/min/kg
IC50 [12]: 96 µM
inhibition of TBOB binding to the chloride channel [3]: inhibited the binding of TBOB
Kd [3]: 5.74 µM
inhibition of the alpha 2 site [13]: No significant inhibition
time the rat was put to sleep [14]: 20 min

CC(C)c1cc(C(=O)c2ccc([N+](=O)[O-])cc2)cc(C(C)C)c1O [Compound 3, (4-hydroxy-3,5-diisopropylphenyl)-(4-nitrophenyl)methanone]
IC50 [1]: > 1000 µM

CC(C)c1cc(C(O)c2ccc(C(F)(F)F)cc2)cc(C(C)C)c1O (stereo not drawn) [Compound 20, 4-((4-(trifluoromethyl)phenyl)(hydroxy)methyl)-2,6-diisopropylphenol]
IC50 [1]: 28 µM

CC(C)c1cc(C(=O)c2ccc(C(C)(C)C)cc2)cc(C(C)C)c1O [Compound 9, (4-tert-butylphenyl)-(4-hydroxy-3,5-diisopropylphenyl)methanone]
IC50 [1]: > 1000 µM

CC(C)c1cc(C(=O)c2cc(F)cc(C(F)(F)F)c2)cc(C(C)C)c1O [Compound 6, (3-fluoro-5-(trifluoromethyl)phenyl)-(4-hydroxy-3,5-diisopropylphenyl)methanone]
IC50 [1]: > 1000 µM
